Measurements: patent US20240181136A1, “LOW MOLECULAR WEIGHT HYDROGELS COMPRISING THIOGLYCOLIPIDS” (ARIZONA BOARD OF REGENTS ON BEHALF OF THE UNIVERSITY OF …, priority 2021, published 2024)

How the values were obtained:
Type in all cases: physicochemical
[1] = Visual assessment of thioglycolipid aggregation and hydrogel formation; design: key to Visual assessment of aggregation and gelation: G = gel; F = fibrous aggregation; C = clear solution; O = cloudy solution; conditions: for Hydrogelation on quenching: quenched at temperatures <20° C.
Procedure: Preparation of Thioglycolipid Solutions and Hydrogel Fabrication. Aqueous solutions of thioglycolipids were prepared by weighing 2-3 mg of thioglycolipids and adding an appropriate volume of water to make solution samples at desired concentrations in vials. The vials were capped, sealed with Parafilm, and heated to 75° C. (or 85° C. for LacSC12) until the thioglycolipids were completely dissolved, which typically required about 1 min. The samples were then allowed to cool to ambient temperature. Above some minimal concentration, the solution forms hydrogels upon cooling (FIG. 1). While hydrogelation happens in under 1 min, the gels were allowed to equilibrate at room temperature for 15 min before any analysis. To make metastable thiocellobiosides gels, the samples were quenched at −4° C. after dissolution at 75° C. Although the metastable hydrogels also formed in under 1 min, the gels were allowed to equilibrate at −4° C. for 15 min before analysis.
Visual Assessment of Thioglycolipid Hydrogel Formation. A wide range of thioglycolipid solutions were evaluated to establish concentration conditions (wt %) under which hydrogelation occurs and to assess the formation of other phases. For LacSC8 and LacSC12 solutions at concentrations <0.5 wt %, the solutions were either clear (C) or contain large aggregates (O) (i.e., cloudy). These solutions formed partial hydrogels surrounded by clear solution between 0.5 but <1 wt %, and were completely gelled at concentrations of 1 wt % and greater. Solutions of LacSC10 at <2 wt % formed partial hydrogels surrounded by clear liquid but were completely gelled at or above 2 wt %. […] CelSC10 and CelSC12 solutions formed settled fibrous aggregates in clear solution after equilibrating at ambient temperature overnight. […] If retained at 5° C. , the CelSC10 and CelSC12 gels were stable for at least 6 months. […] Powder x-ray diffraction confirmed that these fibrous aggregates were crystalline. Overall, the thioglycolipid concentration at which hydrogelation can be observed can be as low as 0.05 wt %, depending on thioglycolipid system, compared to the typical concentration for hydrogelation of at least 1 wt % commonly reported in the literature, although 0.25-2 wt % is the concentration range wherein these thioglycolipid solutions became fully hydrogelled. The existence of metastable hydrogels and the ability to tune the transformation of hydrogels into crystals may allow their potential use as smart materials for different applications.

[2] = Differential scanning calorimetry of hydrogels (gel-sol phase transition); conditions: for Phase transition temperature: DSC heating 5° C. per min; for Enthalpy (J/g hydrogel) / Enthalpy (kJ/mol thioglycolipids): gel-sol transition
Procedure: Differential Scanning calorimetry. A Mettler Toledo DSC 823e differential scanning calorimeter, equipped with cooling apparatus, was used for measurement of the phase transition temperature and enthalpy of the gels. Hydrogel samples were first prepared using the fabrication method described above. Then, they were heated to 75° C. (or 85° C. for LacSC12) until they were in the solution state and then pipetted into aluminum, 40 μL DSC pans and capped with lids. The amount of hydrogel in each aluminum pan was controlled to about 6-8 mg. The pans were maintained at 85° C. for 1 min to ensure the samples were in the solution state. Then, they were cooled to 5° C. and maintained at this temperature for 20 min to ensure the formation of hydrogels. […], the samples were heated from 5° C. to 85° C. at a heating rate at 5° C. per min.
Thermal Properties by DSC. Differential scanning calorimetry (DSC) was used to determine the phase transition temperature as well as to explore the possible existence of other lyotropic phases. DSC involves monitoring the enthalpy change during a phase transition, which can be used as a measure of hydrogel stability. The results (Table 2) indicated an endothermic transition between 30° C. and 80° C. for all thioglycolipid hydrogels studied, and these transitions matched those observed visually in bulk solutions. Overall, hydrogels with longer carbon chains had higher thermostability (i.e., higher phase transition temperature). In addition, the LacSCx (x=10,12) hydrogels had higher thermostability than the CelSCx (x=10,12) hydrogels, despite similar phase transition enthalpies. […] However, the LacSC12 and CelSC12 hydrogels required twice the enthalpy compared to the other three.

[3] = Small amplitude oscillatory shear rheology of hydrogels (strain sweep, frequency sweep, thixotropy); conditions: LacSC10 2 wt %, LacSC12 1 wt %
Procedure: Rheometry. The viscoelastic mechanical properties of the hydrogels were characterized using small amplitude oscillatory shear rheology on a Discovery Hybrid Rheometer 2 (TA Instruments, USA) with a sandblasted 20 mm cone-and-plate geometry at a 1° angle and a sandblasted stage. Inertia, friction, and rotational mapping calibrations were performed prior to each experiment. A Peltier temperature-controlled stage was maintained at 4° C., 10° C., 25° C., or 37° C. for rheology testing. Hydrogels were heated in a water bath above their transition temperature for 5 min, then transferred to the stage before the geometry was lowered quickly (1-3 sec) to the testing gap height of 50 μm. Excess gel was trimmed from the edges of the assembly. To control evaporation, the assembly was encased in a solvent trap with a water seal, and a mineral oil barrier was placed around the edges of the trap. Hydrogels were allowed to form and relax for 1 hour prior to experimentation. Strain sweeps were performed from 0.01% to 1000% shear strain at a constant 10 rad/s angular frequency. G′ (storage modulus) and G″ (loss modulus) were determined by averaging data within the linear viscoelastic region of the strain sweep. Frequency sweeps were performed from 0.01 rad/s to 100 rad/s at a constant 0.01% shear strain. Thixotropy experiments were conducted by cycling the shear strain between 0.01% and 100%. […]

[4] = Stability of hydrogel disks in aqueous media of various pH
Excerpt: Stability of some of the representative hydrogels of the invention in various pH aqueous media was investigated.

[5] = thioglycolipid concentration 0.05 wt %, room temperature
[6] = thioglycolipid concentration 0.1 wt %, room temperature
[7] = thioglycolipid concentration 0.25 wt %, room temperature
[8] = thioglycolipid concentration 0.5 wt %, room temperature
[9] = thioglycolipid concentration 0.75 wt %, room temperature
[10] = thioglycolipid concentration 1 wt %, room temperature
[11] = thioglycolipid concentration 2 wt %, room temperature
[12] = thioglycolipid concentration 5 wt %, room temperature
[13] = thioglycolipid concentration 10 wt %, room temperature

Row | Structure (SMILES) | Visual assessment of aggregation and gelation [1, 5] | Visual assessment of aggregation and gelation [1, 6] | Visual assessment of aggregation and gelation [1, 7] | Visual assessment of aggregation and gelation [1, 8] | Visual assessment of aggregation and gelation [1, 9] | Visual assessment of aggregation and gelation [1, 10] | Visual assessment of aggregation and gelation [1, 11] | Visual assessment of aggregation and gelation [1, 12] | Visual assessment of aggregation and gelation [1, 13] | Hydrogelation on quenching [1] | Phase transition temperature ([2]; 1 wt % hydrogel) | Enthalpy (J/g hydrogel) ([2]; 1 wt % hydrogel) | Enthalpy (kJ/mol thioglycolipids) ([2]; 1 wt % hydrogel) | Gel properties at 37° C. [3] | also measured
1 | CCCCCCCCCCS[C@@H]1O[C@H](CO)[C@@H](O[C@@H]2O[C@H](CO)[C@@H](O)[C@H](O)[C@H]2O)[C@H](O)[C@H]1O [CelSC10] | F | F | G or F | G or F | G or F | G or F | G or F | G or F | G or F | completely hydrogelled | 31-37 °C | 0.18 ± 0.01 | 9.0 ± 0.6 |  | 
2 | CCCCCCCCCCCCS[C@@H]1O[C@H](CO)[C@@H](O[C@@H]2O[C@H](CO)[C@@H](O)[C@H](O)[C@H]2O)[C@H](O)[C@H]1O [CelSC12] | F | F | G or F | G or F | G or F | G or F | G or F | G or F | G or F | completely hydrogelled | 42-54 °C | 0.42 ± 0.06 | 22.3 ± 3.3 |  | 
3 | CCCCCCCCCCCCS[C@@H]1O[C@H](CO)[C@@H](O[C@@H]2O[C@H](CO)[C@H](O)[C@H](O)[C@H]2O)[C@H](O)[C@H]1O [LacSC12] | O | O | O | G + C | G + C | G | G | G | G |  | 63-79 °C | 0.39 ± 0.10 | 20.7 ± 5.3 | retained their gel properties | 

Now from value to molecule, other results behind:

Row | Visual assessment of aggregation and gelation [1, 5] | Visual assessment of aggregation and gelation [1, 6] | Visual assessment of aggregation and gelation [1, 7] | Visual assessment of aggregation and gelation [1, 8] | Visual assessment of aggregation and gelation [1, 9] | Visual assessment of aggregation and gelation [1, 10] | Visual assessment of aggregation and gelation [1, 11] | Visual assessment of aggregation and gelation [1, 12] | Visual assessment of aggregation and gelation [1, 13] | Hydrogelation on quenching [1] | Phase transition temperature ([2]; 1 wt % hydrogel) | Enthalpy (J/g hydrogel) ([2]; 1 wt % hydrogel) | Enthalpy (kJ/mol thioglycolipids) ([2]; 1 wt % hydrogel) | Gel properties at 37° C. [3] | Structure (SMILES) | also measured
4 | C | C | C | C | C | C | C | C | C |  |  |  |  |  | CCCCCCCCS[C@@H]1O[C@H](CO)[C@@H](O[C@@H]2O[C@H](CO)[C@@H](O)[C@H](O)[C@H]2O)[C@H](O)[C@H]1O [CelSC8] | Visual state of solutions over all concentrations studied ([1]; room temperature, 0.05-10 wt %): remained as clear solutions at all concentrations studied
5 | C | C | C | G + C | G + C | G | G | G | G |  | 38-46 °C | 0.20 ± 0.03 | 9.2 ± 1.4 |  | CCCCCCCCS[C@@H]1O[C@H](CO)[C@@H](O[C@@H]2O[C@H](CO)[C@H](O)[C@H](O)[C@H]2O)[C@H](O)[C@H]1O [LacSC8] | 
6 | G + C | G + C | G + C | G + C | G + C | G + C | G | G | G |  |  |  |  | retained their gel properties | CCCCCCCCCCS[C@@H]1O[C@H](CO)[C@@H](O[C@@H]2O[C@H](CO)[C@H](O)[C@H](O)[C@H]2O)[C@H](O)[C@H]1O [LacSC10] | Concentration at which solutions were completely gelled ([1]; room temperature): ≥ 2 wt %; Hydrogel disk size or volume in aqueous media ([4]; pH 2, 7.4 and 10, days 1-21): No observable decrease in disk size or volume; Time hydrogel disks are stable in aqueous media ([4]; pH 2, 7.4 and 10, maximum time investigated): stable in these aqueous media for over two months; Phase transition temperature ([2]; 2 wt % hydrogel): 57-64 °C; Enthalpy (J/g hydrogel) ([2]; 2 wt % hydrogel): 0.35 ± 0.02 J/g hydrogel; Enthalpy (kJ/mol thioglycolipids) ([2]; 2 wt % hydrogel): 8.8 ± 0.5 kJ/mol thioglycolipids
